Data as given in patent US12365696B2, “Small-molecule focal adhesion kinase (FAK) inhibitors” (DANA-FARBER CANCER INSTITUTE, INC., priority 2019, dated 2025).

Tests used:
Test in all cases: KINOMEscan
Format in all cases: binding
[1] = target: CDK11 (Homo sapiens (Human), UniProt Q9BWU1); details: CDK11, 10000 nM; read-out: Percent Control
[2] = target: ABL1(F317L)-phosphorylated (Homo sapiens (Human), UniProt P00519, F317L); details: 10000 nM, read-out: Percent Control
[3] = target: ULK2 (Homo sapiens (Human), UniProt Q8IYT8); details: ULK2, 10000 nM; read-out: Percent Control
[4] = target: RPS6KA4(Kin.Dom.1-N-terminal) (Homo sapiens (Human), UniProt O75676); details: 10000 nM, read-out: Percent Control
[5] = target: KIT(A829P) (Homo sapiens (Human), UniProt P10721, A829P); details: 10000 nM, read-out: Percent Control
[6] = target: RIOK1 (Homo sapiens (Human), UniProt Q9BRS2); details: RIOK1, 10000 nM; read-out: Percent Control
[7] = target: EPHB3 (Homo sapiens (Human), UniProt P54753); details: EPHB3, 10000 nM; read-out: Percent Control
[8] = target: PAK2 (Homo sapiens (Human), UniProt Q13177); details: PAK2, 10000 nM; read-out: Percent Control
[9] = target: EPHB1 (Homo sapiens (Human), UniProt P54762); details: EPHB1, 10000 nM; read-out: Percent Control
[10] = target: INSRR (Homo sapiens (Human), UniProt P14616); details: 10000 nM, read-out: Percent Control
[11] = target: EGFR(L747-E749del, A750P) (Homo sapiens (Human), UniProt P00533, A750P/DEL747-749); details: 10000 nM, read-out: Percent Control
EGFR(L747-E749del, A750P), sequence (P00533 other isoform, or with tags, fused parts or gaps A750P): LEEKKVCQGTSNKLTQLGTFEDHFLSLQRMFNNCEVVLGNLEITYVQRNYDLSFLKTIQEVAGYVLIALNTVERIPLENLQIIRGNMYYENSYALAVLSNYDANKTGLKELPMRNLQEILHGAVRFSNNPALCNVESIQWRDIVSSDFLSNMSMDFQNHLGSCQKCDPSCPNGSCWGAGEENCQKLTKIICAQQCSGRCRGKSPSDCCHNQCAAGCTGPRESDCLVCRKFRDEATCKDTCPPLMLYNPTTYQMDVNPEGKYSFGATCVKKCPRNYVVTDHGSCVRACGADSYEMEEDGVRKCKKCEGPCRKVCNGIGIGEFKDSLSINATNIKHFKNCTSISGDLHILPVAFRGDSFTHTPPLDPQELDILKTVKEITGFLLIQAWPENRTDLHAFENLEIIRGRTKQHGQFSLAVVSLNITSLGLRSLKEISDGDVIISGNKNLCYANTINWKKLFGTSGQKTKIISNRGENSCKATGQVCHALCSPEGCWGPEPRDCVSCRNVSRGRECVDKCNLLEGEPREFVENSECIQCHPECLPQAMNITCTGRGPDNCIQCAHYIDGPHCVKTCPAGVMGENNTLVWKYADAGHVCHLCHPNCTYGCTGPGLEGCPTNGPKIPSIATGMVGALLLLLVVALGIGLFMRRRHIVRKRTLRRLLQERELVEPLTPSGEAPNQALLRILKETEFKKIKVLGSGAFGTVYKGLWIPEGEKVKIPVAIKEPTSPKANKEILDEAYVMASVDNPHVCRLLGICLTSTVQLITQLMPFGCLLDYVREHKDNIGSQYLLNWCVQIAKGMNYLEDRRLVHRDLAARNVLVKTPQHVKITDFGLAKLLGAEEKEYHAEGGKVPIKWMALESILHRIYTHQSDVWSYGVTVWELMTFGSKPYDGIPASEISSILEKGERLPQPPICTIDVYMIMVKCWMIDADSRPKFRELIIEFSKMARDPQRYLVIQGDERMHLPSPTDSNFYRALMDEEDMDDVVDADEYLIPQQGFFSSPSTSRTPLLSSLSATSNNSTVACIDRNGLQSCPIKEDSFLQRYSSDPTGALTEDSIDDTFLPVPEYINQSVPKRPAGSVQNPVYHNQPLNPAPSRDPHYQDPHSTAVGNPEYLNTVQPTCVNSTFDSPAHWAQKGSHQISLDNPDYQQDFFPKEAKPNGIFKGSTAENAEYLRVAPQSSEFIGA

[12] = target: FLT3(N841I) (Homo sapiens (Human), UniProt P36888, N841I); details: 10000 nM, read-out: Percent Control
[13] = target: MEK3 (Homo sapiens (Human), UniProt P46734); details: MEK3, 10000 nM; read-out: Percent Control
MEK3, sequence (P46734 whole entry): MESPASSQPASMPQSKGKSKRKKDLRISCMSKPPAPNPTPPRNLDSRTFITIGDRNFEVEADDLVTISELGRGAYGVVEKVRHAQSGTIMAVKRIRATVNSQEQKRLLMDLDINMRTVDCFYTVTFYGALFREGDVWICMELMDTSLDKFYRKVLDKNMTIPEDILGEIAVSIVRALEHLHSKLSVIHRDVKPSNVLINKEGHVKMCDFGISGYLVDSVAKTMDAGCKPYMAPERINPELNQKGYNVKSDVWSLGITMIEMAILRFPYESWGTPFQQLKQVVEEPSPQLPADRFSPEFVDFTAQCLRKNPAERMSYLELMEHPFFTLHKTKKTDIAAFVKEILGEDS

[14] = target: CSNK2A1 (Homo sapiens (Human), UniProt P68400); details: CSNK2A1, 10000 nM; read-out: Percent Control
CSNK2A1, sequence (P68400 whole entry): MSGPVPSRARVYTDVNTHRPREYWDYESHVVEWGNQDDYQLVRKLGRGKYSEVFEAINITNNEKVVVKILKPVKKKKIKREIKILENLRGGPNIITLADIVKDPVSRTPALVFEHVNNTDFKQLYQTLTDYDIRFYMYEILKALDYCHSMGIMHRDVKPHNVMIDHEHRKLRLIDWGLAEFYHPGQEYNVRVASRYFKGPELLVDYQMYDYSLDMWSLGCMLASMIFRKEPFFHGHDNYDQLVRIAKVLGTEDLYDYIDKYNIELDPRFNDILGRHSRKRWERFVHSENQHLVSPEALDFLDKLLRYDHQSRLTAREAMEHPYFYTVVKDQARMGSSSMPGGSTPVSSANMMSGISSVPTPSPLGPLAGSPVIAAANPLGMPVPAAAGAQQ

[15] = target: MINK (Homo sapiens (Human), UniProt Q8N4C8); details: 10000 nM, read-out: Percent Control
[16] = target: CAMK2A (Homo sapiens (Human), UniProt Q9UQM7); details: 10000 nM, read-out: Percent Control
[17] = target: PAK1 (Homo sapiens (Human), UniProt Q13153); details: PAK1, 10000 nM; read-out: Percent Control
[18] = target: SYK (Homo sapiens (Human), UniProt P43405); details: 10000 nM, read-out: Percent Control
[19] = target: WNK3 (Homo sapiens (Human), UniProt Q9BYP7); details: WNK3, 10000 nM; read-out: Percent Control
[20] = target: ALK (Homo sapiens (Human), UniProt Q9UM73); details: 10000 nM, read-out: Percent Control
[21] = target: HIPK1 (Homo sapiens (Human), UniProt Q86Z02); details: HIPK1, 10000 nM; read-out: Percent Control
[22] = target: MERTK (Homo sapiens (Human), UniProt Q12866); details: 10000 nM, read-out: Percent Control
[23] = target: TAOK1 (Homo sapiens (Human), UniProt Q7L7X3); details: TAOK1, 10000 nM; read-out: Percent Control
[24] = target: FLT3-autoinhibited (Homo sapiens (Human), UniProt P36888); details: 10000 nM, read-out: Percent Control
[25] = target: STK39 (Homo sapiens (Human), UniProt Q9UEW8); details: STK39, 10000 nM; read-out: Percent Control
[26] = target: SIK2 (Homo sapiens (Human), UniProt Q9H0K1); details: SIK2, 10000 nM; read-out: Percent Control
[27] = target: NIK (Homo sapiens (Human), UniProt Q99558); details: 10000 nM, read-out: Percent Control
[28] = target: YSK1 (Homo sapiens (Human), UniProt O00506); details: YSK1, 10000 nM; read-out: Percent Control
[29] = target: ERN1 (Homo sapiens (Human), UniProt O75460); details: ERN1, 10000 nM; read-out: Percent Control
[30] = target: CSNK1G3 (Homo sapiens (Human), UniProt Q9Y6M4); details: CSNK1G3, 10000 nM; read-out: Percent Control
CSNK1G3, sequence (Q9Y6M4 whole entry): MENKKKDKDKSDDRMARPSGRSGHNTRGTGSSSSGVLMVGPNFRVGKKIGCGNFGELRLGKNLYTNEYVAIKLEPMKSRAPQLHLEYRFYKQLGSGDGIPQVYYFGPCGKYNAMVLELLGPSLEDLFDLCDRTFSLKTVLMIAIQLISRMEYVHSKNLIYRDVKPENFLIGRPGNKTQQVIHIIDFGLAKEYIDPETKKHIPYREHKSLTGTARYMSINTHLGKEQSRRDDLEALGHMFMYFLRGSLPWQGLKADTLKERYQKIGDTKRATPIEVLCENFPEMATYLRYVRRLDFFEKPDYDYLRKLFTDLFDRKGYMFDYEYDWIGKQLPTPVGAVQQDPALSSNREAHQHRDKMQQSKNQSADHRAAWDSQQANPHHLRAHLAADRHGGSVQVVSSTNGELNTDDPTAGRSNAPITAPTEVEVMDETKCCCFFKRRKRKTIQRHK

[31] = target: CSNK1A1 (Homo sapiens (Human), UniProt P48729); details: CSNK1A1, 10000 nM; read-out: Percent Control
CSNK1A1, sequence (P48729 whole entry): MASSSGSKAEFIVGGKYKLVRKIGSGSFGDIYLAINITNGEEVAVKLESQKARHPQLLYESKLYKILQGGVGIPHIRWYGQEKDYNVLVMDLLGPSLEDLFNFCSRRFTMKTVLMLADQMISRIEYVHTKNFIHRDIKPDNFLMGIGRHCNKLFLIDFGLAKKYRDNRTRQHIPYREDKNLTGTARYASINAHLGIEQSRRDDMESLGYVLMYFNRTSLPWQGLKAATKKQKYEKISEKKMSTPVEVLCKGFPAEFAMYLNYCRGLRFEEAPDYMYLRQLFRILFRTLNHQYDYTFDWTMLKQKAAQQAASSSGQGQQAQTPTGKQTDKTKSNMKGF

[32] = target: KIT-autoinhibited (Homo sapiens (Human), UniProt P10721); details: 10000 nM, read-out: Percent Control
KIT-autoinhibited, sequence (P10721 544-976): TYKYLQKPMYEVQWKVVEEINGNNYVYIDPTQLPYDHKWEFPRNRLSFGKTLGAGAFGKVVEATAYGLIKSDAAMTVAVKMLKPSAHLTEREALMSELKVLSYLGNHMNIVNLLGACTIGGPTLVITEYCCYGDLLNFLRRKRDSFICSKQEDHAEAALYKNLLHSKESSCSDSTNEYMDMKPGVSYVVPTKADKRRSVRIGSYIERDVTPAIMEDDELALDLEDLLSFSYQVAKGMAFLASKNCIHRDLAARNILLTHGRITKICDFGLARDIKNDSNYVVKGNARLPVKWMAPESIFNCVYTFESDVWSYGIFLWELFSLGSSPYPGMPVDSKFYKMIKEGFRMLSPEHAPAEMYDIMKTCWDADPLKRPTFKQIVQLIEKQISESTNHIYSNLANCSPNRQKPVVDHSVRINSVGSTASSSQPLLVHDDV

[33] = target: PLK2 (Homo sapiens (Human), UniProt Q9NYY3); details: PLK2, 10000 nM; read-out: Percent Control
PLK2, sequence (Q9NYY3 whole entry): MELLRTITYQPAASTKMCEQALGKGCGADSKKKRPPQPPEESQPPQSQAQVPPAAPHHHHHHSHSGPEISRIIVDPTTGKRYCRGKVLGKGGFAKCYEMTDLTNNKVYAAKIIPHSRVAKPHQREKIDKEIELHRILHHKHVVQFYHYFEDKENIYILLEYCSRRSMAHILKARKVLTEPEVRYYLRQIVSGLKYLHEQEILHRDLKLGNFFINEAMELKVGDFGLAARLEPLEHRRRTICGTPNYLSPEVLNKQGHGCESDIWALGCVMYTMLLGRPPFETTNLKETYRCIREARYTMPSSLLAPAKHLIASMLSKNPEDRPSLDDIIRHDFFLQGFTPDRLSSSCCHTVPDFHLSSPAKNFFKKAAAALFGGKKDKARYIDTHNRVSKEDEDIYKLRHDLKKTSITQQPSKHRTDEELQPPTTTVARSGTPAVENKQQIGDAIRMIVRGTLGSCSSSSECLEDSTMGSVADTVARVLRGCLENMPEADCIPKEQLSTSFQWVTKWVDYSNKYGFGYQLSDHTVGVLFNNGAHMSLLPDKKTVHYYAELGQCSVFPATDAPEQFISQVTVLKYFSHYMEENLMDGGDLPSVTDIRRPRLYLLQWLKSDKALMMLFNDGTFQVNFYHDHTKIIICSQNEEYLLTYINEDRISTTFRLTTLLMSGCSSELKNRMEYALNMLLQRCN

[34] = target: HUNK (Homo sapiens (Human), UniProt P57058); details: 10000 nM, read-out: Percent Control

ABL1(F317L)-phosphorylated, sequence (P00519 whole entry F317L): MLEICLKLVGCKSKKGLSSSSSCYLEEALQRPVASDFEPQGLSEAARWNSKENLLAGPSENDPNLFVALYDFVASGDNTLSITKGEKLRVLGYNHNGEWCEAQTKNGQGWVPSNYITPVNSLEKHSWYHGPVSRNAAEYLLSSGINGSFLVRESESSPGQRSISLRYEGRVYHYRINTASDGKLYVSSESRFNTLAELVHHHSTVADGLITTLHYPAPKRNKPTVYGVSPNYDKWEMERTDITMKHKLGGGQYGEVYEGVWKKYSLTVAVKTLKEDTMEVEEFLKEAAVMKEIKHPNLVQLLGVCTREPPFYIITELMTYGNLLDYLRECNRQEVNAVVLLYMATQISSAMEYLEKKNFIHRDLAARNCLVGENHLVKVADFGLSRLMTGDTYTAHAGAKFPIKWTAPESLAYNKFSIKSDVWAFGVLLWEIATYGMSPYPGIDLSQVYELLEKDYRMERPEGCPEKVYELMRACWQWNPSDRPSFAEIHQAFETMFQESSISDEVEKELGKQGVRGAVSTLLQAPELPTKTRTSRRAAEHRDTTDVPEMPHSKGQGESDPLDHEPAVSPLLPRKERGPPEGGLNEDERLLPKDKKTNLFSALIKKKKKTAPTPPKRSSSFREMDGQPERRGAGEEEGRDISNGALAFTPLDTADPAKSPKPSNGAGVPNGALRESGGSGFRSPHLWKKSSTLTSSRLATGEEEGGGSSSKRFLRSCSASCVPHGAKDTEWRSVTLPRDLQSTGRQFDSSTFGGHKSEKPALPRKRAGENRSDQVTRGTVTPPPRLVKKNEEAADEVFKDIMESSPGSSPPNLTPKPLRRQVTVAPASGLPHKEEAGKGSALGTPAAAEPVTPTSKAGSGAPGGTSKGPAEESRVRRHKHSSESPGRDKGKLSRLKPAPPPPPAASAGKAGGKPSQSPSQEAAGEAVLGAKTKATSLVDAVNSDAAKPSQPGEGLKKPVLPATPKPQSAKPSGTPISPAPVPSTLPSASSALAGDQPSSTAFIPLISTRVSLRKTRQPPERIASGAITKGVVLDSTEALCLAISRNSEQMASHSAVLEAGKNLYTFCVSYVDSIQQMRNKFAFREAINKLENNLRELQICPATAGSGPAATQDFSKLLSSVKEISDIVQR

Molecule COc1cc(N2CCC(N3CCN(C)CC3)CC2)ccc1Nc1ncc2c(n1)N(C)c1sc(C)nc1C(=O)N2 [Compound 3, 6-((2-methoxy-4-(4-(4-methylpiperazin-1-yl)piperidin-1-yl)phenyl)amino)-2,4-dimethyl-4,9-dihydro-10H-pyrimido[5,4-b]thiazolo[5,4-e][1,4]diazepin-10-one] has a remaining binding at 10 µM [1] of 71%, a remaining binding at 10 µM [2] of 10% and a remaining binding at 10 µM [3] of 100%. It also gave a remaining binding at 10 µM [4] of 100%, a remaining binding at 10 µM [5] of 47% and a remaining binding at 10 µM [6] of 62%. For the same molecule, the remaining binding at 10 µM [7] was 70%, the remaining binding at 10 µM [8] was 72% and the remaining binding at 10 µM [9] was 48%. For the same molecule, the remaining binding at 10 µM [10] was 84%, the remaining binding at 10 µM [11] was 95% and the remaining binding at 10 µM [12] was 98%. For the same molecule, the remaining binding at 10 µM [13] was 92%, the remaining binding at 10 µM [14] was 93% and the remaining binding at 10 µM [15] was 100%. The remaining binding at 10 µM [16] was 76%, the remaining binding at 10 µM [17] was 64% and the remaining binding at 10 µM [18] was 77%. The remaining binding at 10 µM [19] was 100%, the remaining binding at 10 µM [20] was 100% and the remaining binding at 10 µM [21] was 83%. For the same molecule, the remaining binding at 10 µM [22] was 93%, the remaining binding at 10 µM [23] was 100% and the remaining binding at 10 µM [24] was 100%. The remaining binding at 10 µM [25] was 100%, the remaining binding at 10 µM [26] was 86% and the remaining binding at 10 µM [27] was 85%. For the same molecule, the remaining binding at 10 µM [28] was 79%, the remaining binding at 10 µM [29] was 93% and the remaining binding at 10 µM [30] was 87%. For the same molecule, the remaining binding at 10 µM [31] was 62%, the remaining binding at 10 µM [32] was 100% and the remaining binding at 10 µM [33] was 100%. For the same molecule, the remaining binding at 10 µM [34] was 95%.

For COc1cc(N2CCC(N3CCN(C)CC3)CC2)ccc1Nc1ncc2c(n1)N(C)c1sc(C)nc1C(=O)N2C [Compound 5, 6-((2-methoxy-4-(4-(4-methylpiperazin-1-yl)piperidin-1-yl)phenyl)amino)-2,4,9-trimethyl-4,9-dihydro-10H-pyrimido[5,4-b]thiazolo[5,4-e][1,4]diazepin-10-one], the remaining binding at 10 µM [1] was 90%, the remaining binding at 10 µM [2] was 39% and the remaining binding at 10 µM [3] was 81%. The remaining binding at 10 µM [4] was 100%, the remaining binding at 10 µM [5] was 100% and the remaining binding at 10 µM [6] was 100%. The remaining binding at 10 µM [7] was 100%, the remaining binding at 10 µM [8] was 89% and the remaining binding at 10 µM [9] was 93%. The remaining binding at 10 µM [10] was 22%, the remaining binding at 10 µM [11] was 97% and the remaining binding at 10 µM [12] was 83%. For the same molecule, the remaining binding at 10 µM [13] was 100%, the remaining binding at 10 µM [14] was 95% and the remaining binding at 10 µM [15] was 100%. For the same molecule, the remaining binding at 10 µM [16] was 100%, the remaining binding at 10 µM [17] was 92% and the remaining binding at 10 µM [18] was 89%. It also gave a remaining binding at 10 µM [19] of 97%, a remaining binding at 10 µM [20] of 99% and a remaining binding at 10 µM [21] of 94%. It also gave a remaining binding at 10 µM [22] of 100%, a remaining binding at 10 µM [23] of 80% and a remaining binding at 10 µM [24] of 99%. For the same molecule, the remaining binding at 10 µM [25] was 77%, the remaining binding at 10 µM [26] was 99% and the remaining binding at 10 µM [27] was 93%. For the same molecule, the remaining binding at 10 µM [28] was 100%, the remaining binding at 10 µM [29] was 88% and the remaining binding at 10 µM [30] was 100%. For the same molecule, the remaining binding at 10 µM [31] was 97%, the remaining binding at 10 µM [32] was 100% and the remaining binding at 10 µM [33] was 62%. For the same molecule, the remaining binding at 10 µM [34] was 97%.
